Patent US9708314B2, “Heterocyclic amide compound” (NISSAN CHEMICAL INDUSTRIES, LTD., priority 2013, dated 2017)

What was measured:
Format in all cases: in vivo
[1] = system: directly sowed Oryza sativa; assay: Test Example 4: effect on crop by application to foliage (diluvial soil, plastic box); conditions: 320 g/ha; for effect on crop, d (directly sowed Oryza sativa): application to foliage
In short: (§1)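 Emulsion-formulated compound, diluted to a predetermined g/ha dose, applied by small sprayer to leaves and stems of 14-day-old seedlings grown in sterilized diluvial soil. Effect rated on 0–5 herbicidal-ratio scale three weeks on.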

Triticum aestivum = assay: as above; conditions: 320 g/ha; for effect on crop, e (Triticum aestivum): application to foliage
In short: as §1

Zea mays = assay: as above; conditions: 320 g/ha; for effect on crop, b (Zea mays): application to foliage
In short: as §1

Brassica campestris L. = assay: as above; conditions: 320 g/ha; for effect on crop, g (Brassica campestris L.): application to foliage
In short: as §1

Glycine max = assay: as above; conditions: 320 g/ha; for effect on crop, c (Glycine max): application to foliage
In short: as §1

[2] = system: Beta vulgaris ssp. vulgaris; assay: as above; conditions: 320 g/ha; for effect on crop, f (Beta vulgaris ssp. vulgaris): application to foliage
In short: as §1

Chenopodium album = assay: Test Example 4: herbicidal effect by application to foliage (diluvial soil, plastic box); conditions: 320 g/ha; for herbicidal effect, O (Chenopodium album): application to foliage
In short: as §1

Lolium multiflorum Lam. = assay: as above; conditions: 320 g/ha; for herbicidal effect, K (Lolium multiflorum Lam.): application to foliage
In short: as §1

Apera spica-venti. = assay: as above; conditions: 320 g/ha; for herbicidal effect, L (Apera spica-venti.): application to foliage
In short: as §1

Alopecurus myosuroides = assay: as above; conditions: 320 g/ha; for herbicidal effect, J (Alopecurus myosuroides): application to foliage
In short: as §1

Stellaria media = assay: as above; conditions: 320 g/ha; for herbicidal effect, P (Stellaria media): application to foliage
In short: as §1

Veronica persica = assay: as above; conditions: 320 g/ha; for herbicidal effect, R (Veronica persica): application to foliage
In short: as §1

Digitaria ciliaris = assay: as above; conditions: 320 g/ha; for herbicidal effect, F (Digitaria ciliaris): application to foliage
In short: as §1

[3] = system: Echinochloa crus-galli var. crus-galli; assay: as above; conditions: 320 g/ha; for herbicidal effect, H (Echinochloa crus-galli var. crus-galli): application to foliage
In short: as §1

Avena fatua = assay: as above; conditions: 320 g/ha; for herbicidal effect, I (Avena fatua): application to foliage
In short: as §1

Setaria viridis = assay: as above; conditions: 320 g/ha; for herbicidal effect, G (Setaria viridis): application to foliage
In short: as §1

Amaranthus retroflexus = assay: as above; conditions: 320 g/ha; for herbicidal effect, N (Amaranthus retroflexus): application to foliage
In short: as §1

Abutilon theophrasti = assay: as above; conditions: 320 g/ha; for herbicidal effect, M (Abutilon theophrasti): application to foliage
In short: as §1

Galium spurium = assay: as above; conditions: 320 g/ha; for herbicidal effect, Q (Galium spurium): application to foliage
In short: as §1

Monochoria vaginalis = assay: Test Example 1: herbicidal activity, application before weed generation in submerged conditions; conditions: Seventeenth Table; for C (Monochoria vaginalis) herbicidal ratio grade: application herbicide amount 320 g/ha
In short: (§2)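 Rating, on a six-step scale from almost no effect (0) to almost completely withered (5), was made three weeks after pre-emergence treatment. Treatment was surface application to flooded pots at g/ha rates, with plants kept at 25° C. to 30° C.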

[4] = system: Echinochloa oryzacola Vasing.; assay: as above; conditions: Seventeenth Table; for A (Echinochloa oryzicola Vasing.) herbicidal ratio grade: application herbicide amount 320 g/ha
In short: as §2

Scirpus juncoides = assay: as above; conditions: Seventeenth Table; for B (Scirpus juncoides) herbicidal ratio grade: application herbicide amount 320 g/ha
In short: as §2

[5] = Application herbicide amount 320 g/ha

Structure (SMILES): CCn1nc2c(C(=O)Nc3nnnn3C)ccc(C(F)(F)F)n2c1=O [6-004]
- effect on crop, d (directly sowed Oryza sativa) [1]: 4 (Herbicidal ratio of 70% or more and less than 90%)
- effect on crop, e (Triticum aestivum) (Triticum aestivum): 1 (Herbicidal ratio of 5% or more and less than 20%)
- effect on crop, b (Zea mays) (Zea mays): 0 (Herbicidal ratio of 5% or less (almost no effect))
- effect on crop, g (Brassica campestris L.) (Brassica campestris L.): 3 (Herbicidal ratio of 40% or more and less than 70%)
- effect on crop, c (Glycine max) (Glycine max): 0 (Herbicidal ratio of 5% or less (almost no effect))
- effect on crop, f (Beta vulgaris ssp. vulgaris) [2]: 2 (Herbicidal ratio of 20% or more and less than 40%)
- herbicidal effect, O (Chenopodium album) (Chenopodium album): 5 (Herbicidal ratio of 90% or more (almost completely withered))
- herbicidal effect, K (Lolium multiflorum Lam.) (Lolium multiflorum Lam.): 2 (Herbicidal ratio of 20% or more and less than 40%)
- herbicidal effect, L (Apera spica-venti.) (Apera spica-venti.): 1 (Herbicidal ratio of 5% or more and less than 20%)
- herbicidal effect, J (Alopecurus myosuroides) (Alopecurus myosuroides): 1 (Herbicidal ratio of 5% or more and less than 20%)
- herbicidal effect, P (Stellaria media) (Stellaria media): 4 (Herbicidal ratio of 70% or more and less than 90%)
- herbicidal effect, R (Veronica persica) (Veronica persica): 3 (Herbicidal ratio of 40% or more and less than 70%)
- herbicidal effect, F (Digitaria ciliaris) (Digitaria ciliaris): 5 (Herbicidal ratio of 90% or more (almost completely withered))
- herbicidal effect, H (Echinochloa crus-galli var. crus-galli) [3]: 5 (Herbicidal ratio of 90% or more (almost completely withered))
- herbicidal effect, I (Avena fatua) (Avena fatua): 3 (Herbicidal ratio of 40% or more and less than 70%)
- herbicidal effect, G (Setaria viridis) (Setaria viridis): 4 (Herbicidal ratio of 70% or more and less than 90%)
- herbicidal effect, N (Amaranthus retroflexus) (Amaranthus retroflexus): 5 (Herbicidal ratio of 90% or more (almost completely withered))
- herbicidal effect, M (Abutilon theophrasti) (Abutilon theophrasti): 5 (Herbicidal ratio of 90% or more (almost completely withered))
- herbicidal effect, Q (Galium spurium) (Galium spurium): 4 (Herbicidal ratio of 70% or more and less than 90%)
- C (Monochoria vaginalis) herbicidal ratio grade (Monochoria vaginalis): 2 (Herbicidal ratio of 20% or more and less than 40%)
- A (Echinochloa oryzicola Vasing.) herbicidal ratio grade [4]: 0 (Herbicidal ratio of 5% or less (almost no effect))
- B (Scirpus juncoides) herbicidal ratio grade (Scirpus juncoides): 0 (Herbicidal ratio of 5% or less (almost no effect))

Structure (SMILES): COc1ccc(Cc2nnc3c(C(=O)Nc4nnnn4C)ccc(C(F)(F)F)n23)cc1 [2-065]
- d (directly sowed Oryza sativa) effect on crop grade ([1]; foliage application): 4 (Herbicidal ratio of 70% or more and less than 90%)
- e (Triticum aestivum) effect on crop grade (Triticum aestivum; foliage application): 3 (Herbicidal ratio of 40% or more and less than 70%)
- b (Zea mays) effect on crop grade (Zea mays; foliage application): 3 (Herbicidal ratio of 40% or more and less than 70%)
- g (Brassica campestris L.) effect on crop grade (Brassica campestris L.; foliage application): 4 (Herbicidal ratio of 70% or more and less than 90%)
- c (Glycine max) effect on crop grade (Glycine max; foliage application): 4 (Herbicidal ratio of 70% or more and less than 90%)
- f (Beta vulgaris ssp. vulgaris) effect on crop grade ([2]; foliage application): 5 (Herbicidal ratio of 90% or more (almost completely withered))
- O (Chenopodium album) herbicidal effect grade (Chenopodium album; foliage application): 5 (Herbicidal ratio of 90% or more (almost completely withered))
- K (Lolium multiflorum Lam.) herbicidal effect grade (Lolium multiflorum Lam.; foliage application): 3 (Herbicidal ratio of 40% or more and less than 70%)
- L (Apera spica-venti.) herbicidal effect grade (Apera spica-venti.; foliage application): 4 (Herbicidal ratio of 70% or more and less than 90%)
- J (Alopecurus myosuroides) herbicidal effect grade (Alopecurus myosuroides; foliage application): 3 (Herbicidal ratio of 40% or more and less than 70%)
- P (Stellaria media) herbicidal effect grade (Stellaria media; foliage application): 5 (Herbicidal ratio of 90% or more (almost completely withered))
- R (Veronica persica) herbicidal effect grade (Veronica persica; foliage application): 5 (Herbicidal ratio of 90% or more (almost completely withered))
- F (Digitaria ciliaris) herbicidal effect grade (Digitaria ciliaris; foliage application): 5 (Herbicidal ratio of 90% or more (almost completely withered))
- H (Echinochloa crus-galli var. crus-galli) herbicidal effect grade ([3]; foliage application): 5 (Herbicidal ratio of 90% or more (almost completely withered))
- I (Avena fatua) herbicidal effect grade (Avena fatua; foliage application): 4 (Herbicidal ratio of 70% or more and less than 90%)
- G (Setaria viridis) herbicidal effect grade (Setaria viridis; foliage application): 5 (Herbicidal ratio of 90% or more (almost completely withered))
- N (Amaranthus retroflexus) herbicidal effect grade (Amaranthus retroflexus; foliage application): 5 (Herbicidal ratio of 90% or more (almost completely withered))
- M (Abutilon theophrasti) herbicidal effect grade (Abutilon theophrasti; foliage application): 5 (Herbicidal ratio of 90% or more (almost completely withered))
- Q (Galium spurium) herbicidal effect grade (Galium spurium; foliage application): 3 (Herbicidal ratio of 40% or more and less than 70%)
- C: Monochoria vaginalis (herbicidal effect grade) (Monochoria vaginalis; [5]): 4 (Herbicidal ratio of 70% or more and less than 90%)
- A: Echinochloa oryzicola Vasing. (herbicidal effect grade) [4, 5]: 5 (Herbicidal ratio of 90% or more (almost completely withered))
- B: Scirpus juncoides (herbicidal effect grade) (Scirpus juncoides; [5]): 4 (Herbicidal ratio of 70% or more and less than 90%)

Structure (SMILES): C=CCN(C)c1nnc2c(C(=O)Nc3nnnn3C)ccc(C(F)(F)F)n12 [2-100]
- effect on crop, d (directly sowed Oryza sativa) [1]: 4 (Herbicidal ratio of 70% or more and less than 90%)
- effect on crop, e (Triticum aestivum) (Triticum aestivum): 0 (Herbicidal ratio of 5% or less (almost no effect))
- effect on crop, b (Zea mays) (Zea mays): 5 (Herbicidal ratio of 90% or more (almost completely withered))
- effect on crop, g (Brassica campestris L.) (Brassica campestris L.): 5 (Herbicidal ratio of 90% or more (almost completely withered))
- effect on crop, c (Glycine max) (Glycine max): 0 (Herbicidal ratio of 5% or less (almost no effect))
- effect on crop, f (Beta vulgaris ssp. vulgaris) [2]: 5 (Herbicidal ratio of 90% or more (almost completely withered))
- herbicidal effect, O (Chenopodium album) (Chenopodium album): 5 (Herbicidal ratio of 90% or more (almost completely withered))
- herbicidal effect, K (Lolium multiflorum Lam.) (Lolium multiflorum Lam.): 3 (Herbicidal ratio of 40% or more and less than 70%)
- herbicidal effect, L (Apera spica-venti.) (Apera spica-venti.): 4 (Herbicidal ratio of 70% or more and less than 90%)
- herbicidal effect, J (Alopecurus myosuroides) (Alopecurus myosuroides): 2 (Herbicidal ratio of 20% or more and less than 40%)
- herbicidal effect, P (Stellaria media) (Stellaria media): 5 (Herbicidal ratio of 90% or more (almost completely withered))
- herbicidal effect, R (Veronica persica) (Veronica persica): 5 (Herbicidal ratio of 90% or more (almost completely withered))
- herbicidal effect, F (Digitaria ciliaris) (Digitaria ciliaris): 5 (Herbicidal ratio of 90% or more (almost completely withered))
- herbicidal effect, H (Echinochloa crus-galli var. crus-galli) [3]: 5 (Herbicidal ratio of 90% or more (almost completely withered))
- herbicidal effect, I (Avena fatua) (Avena fatua): 3 (Herbicidal ratio of 40% or more and less than 70%)
- herbicidal effect, G (Setaria viridis) (Setaria viridis): 4 (Herbicidal ratio of 70% or more and less than 90%)
- herbicidal effect, N (Amaranthus retroflexus) (Amaranthus retroflexus): 5 (Herbicidal ratio of 90% or more (almost completely withered))
- herbicidal effect, M (Abutilon theophrasti) (Abutilon theophrasti): 5 (Herbicidal ratio of 90% or more (almost completely withered))
- herbicidal effect, Q (Galium spurium) (Galium spurium): 5 (Herbicidal ratio of 90% or more (almost completely withered))
- C (Monochoria vaginalis) herbicidal ratio grade (Monochoria vaginalis): 5 (Herbicidal ratio of 90% or more (almost completely withered))
- A (Echinochloa oryzicola Vasing.) herbicidal ratio grade [4]: 5 (Herbicidal ratio of 90% or more (almost completely withered))
- B (Scirpus juncoides) herbicidal ratio grade (Scirpus juncoides): 5 (Herbicidal ratio of 90% or more (almost completely withered))
